Reference: ChEMBL document CHEMBL4261645, “Isolation, leishmanicidal evaluation and molecular docking simulations of piperidine alkaloids from Senna spectabilis” (Bioorg Med Chem, 2018)
In brackets after ≈: the same amount, converted by molar mass.

How the values were obtained:
[1] = tested on: Leishmania amazonensis; assay: Leishmanicidal activity against Leishmania amazonensis PH8 promastigotes after 48 hrs by spectrophotometric analysis; type: functional, organism-based; details: PH8, 48 h
[2] = Cytotoxicity against African green monkey Vero cells after 48 hrs by resazurin dye-based spectrophotometric analysis; type: cell-based; details: chlorocebus sabaeus
[3] = tested on: Leishmania major; assay: Leishmanicidal activity against Leishmania major MHOM/SU/1973/5-ASKH promastigotes after 48 hrs by cell counting method; type: functional, organism-based
[4] = Log10 selectivity index, ratio of CC50 for African green monkey Vero cells to IC50 for Leishmania amazonensis PH8 promastigotes; details: Vero cells versus Leishmania amazonensis PH8 promastigotes

Compound | IC50 [1] | CC50 at 48 h [2] | IC50 [3] | log10 selectivity index [4]
CC(=O)CCCCCCCCCCCC[C@H]1CC[C@@H](O)[C@@H](C)N1 | 15.8 µg/mL (≈ 48.6 µM) | 66.7 µg/mL (≈ 205 µM) | 24.9 µg/mL (≈ 76.5 µM) | 0.62
CC(=O)CCCCCCCCCCCC[C@H]1CC[C@@H](OC(C)=O)[C@@H](C)N1 | 25.9 to 26.3 µg/mL (≈ 70.6 to 71.6 µM) | 255 to 274 µg/mL (≈ 694 to 744 µM) | – | 0.99 to 1.02
CC(=O)CCCCCCCCCC[C@H]1CC[C@@H](OC(C)=O)[C@@H](C)N1 | 30.2 to 30.7 µg/mL (≈ 89.1 to 90.5 µM) | 357 to 361 µg/mL (≈ 1050 to 1060 µM) | – | 1.06 to 1.07
C[C@@H]1[C@H](O)[C@@H](C)/C=C/C=C/C=C/C=C/C=C/C=C/C=C/[C@H](O[C@@H]2O[C@H](C)[C@@H](O)[C@H](N)[C@@H]2O)C[C@@H]2O[C@](O)(C[C@@H](O)C[C@@H](O)[C@H](O)CC[C@@H](O)C[C@@H](O)CC(=O)O[C@H]1C)C[C@H](O)[C@H]2C(=O)O [AMPHOTERICIN B] | 0.29 µg/mL (≈ 0.314 µM) | – | – | –
CC(=O)CCCCCCCCCC[C@H]1CC[C@@H](O)[C@@H](C)N1 [CASSINE] | 25.2 µg/mL (≈ 84.6 µM) | 249 µg/mL (≈ 838 µM) | 1.6 µg/mL (≈ 5.38 µM) | 0.99
